Results from US20220249606A1, “Method of treatment of degenerative diseases caused by membrane channel-forming peptides fragments” (Zarbio, priority 2021, published 2022).
Entries after “also recorded” stand apart in the source; their conditions may differ. Like-named read-outs stand apart in the source and are kept apart here.

How the values were obtained:
[1] = tested on: Aβ-induced apoptosis in the brain; settings: cited from earlier work; for Aβ-induced apoptosis (TUNEL marker in the brain) / accumulation of Aβ immunoreactivity / amyloid: chronic Aβ infusion with simultaneous i.c.v. infusion of inhibitor
[2] = Flow cytometric calcium permeabilization of phosphatidylserine liposomes (Fluo-3/DiD); format: biochemical; settings: for permeabilization of negatively charged (phosphatidylserine) liposomes to calcium: 400 nm liposomes, Fluo-3, flow cytometer
Description: (§1) The figure is a composite of data which was presented and analyzed in detail in (Zaretsky and Zaretskaia 2020, Zaretsky and Zaretskaia 2020). Liposomes (400 nm) were made of either phosphatidylserine (A-E, negatively charged lipid) or phosphatidylcholine (F-H, neutral lipid) with added DiD and were extruded in the Ca-free buffer containing 1 mM Fluo-3. After the addition of calcium, aliquots of peptide were added. Ionomycin was used as a positive control. Fluorescence of liposomes was analyzed using a flow cytometer. Each dot at the graph represent a single liposome registered in the flow. The intensity of DiD fluorescence characterizes the amount of membrane material in the liposome, while the fluorescence of Fluo-3 depends on the intraliposomal presence of calcium. […] The liposomes inside rectangle (area R1) are permeabilized, and the number of liposomes which were counted to be within the area is shown.
Liposomes with embedded ion-sensitive probe are used as a test system. Liposomes are extruded from phosphatidylserine containing membrane probe (i.e. DiD) in a calcium-free buffer containing ion-sensitive probe (i.e. Fluo-4) and volume probe (i.e. dextran-tetramethylrhodamin) or membrane probe (DiD). Extravesicular probes are cleared using either centrifugation, or dialysis. After the addition of calcium, the intravesicular calcium-sensing probe remain non-fluorescent because membranes are not permeable to calcium. If membrane channels are formed, calcium enters permeable liposomes, saturates the calcium-sensing dye, so the liposome becomes fluorescent. The number of fluorescent liposomes is an estimate of the number of channel-forming units in the solution.

[3] = Flow cytometric calcium permeabilization of phosphatidylcholine liposomes (Fluo-3/DiD); format: biochemical; settings: 400 nm liposomes, Fluo-3, flow cytometer
Description: as §1

amyloid channels = amyloid channels (Homo sapiens, UniProt P05067); settings: cited from earlier work
Chain of amyloid channels (P05067 672-711): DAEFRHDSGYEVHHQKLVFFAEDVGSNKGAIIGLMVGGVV

[4] = cited from earlier work
[5] = tested on: Aβ1-42-induced drop of cell survival; settings: Tizon 2010; cited from earlier work
[6] = tested on: rat primary cortical cultures; settings: MTT, different concentrations of Aβ; cited from earlier work
Aβ1-42 toxicity = settings: Aβ1-42, Aksenov 1996; cited from earlier work
[7] = tested on: 15 cells derived from pancreatic islets of Langerhans; settings: cited from earlier work; for amylin-induced drop in cell viability / cellular toxicity: pancreatic islet cell line
[8] = tested on: 15 cells derived from pancreatic islets of Langerhans; settings: cited from earlier work; for beta-amyloid-induced drop in cell viability: two cell lines, not specified
[9] = MTT, listed as al-anti-chymotrypsin

## aprotinin
[1]; rat, in vivo
  apoptosis by the inhibitor itself (spontaneously occurring, TUNEL): tends to decrease even spontaneously occurring apoptosis
[1]; rats
  Aβ-induced apoptosis (TUNEL marker in the brain): prevented Aβ-induced apoptosis
  accumulation of Aβ immunoreactivity / amyloid: did not exacerbate intracellular accumulation of amyloid

## CC(=O)N[C@@H](CC(C)C)C(=O)N[C@@H](CC(C)C)C(=O)N[C@H](C=O)CCCNC(=N)N [leupeptin]
[1]; rats
  Aβ-induced apoptosis (TUNEL marker in the brain): promoted apoptosis
  accumulation of Aβ immunoreactivity / amyloid: accumulation of extracellular and intracellular Aβ immunoreactivity
[1]; rats, inhibitor without Aβ
  apoptosis by the inhibitor itself (spontaneously occurring, TUNEL): tends to increase apoptosis

## C[C@H](CCC(=O)O)C[C@H](C)C[C@H](C)C(=O)/C=C(\O)[C@H](C)C[C@H](C)C/C=C/[C@@H](C)[C@@H](O)[C@@H](C)[C@@H](O)C[C@@H]1CC[C@@](C)([C@H]2CC[C@@](C)([C@@H](C)O)O2)O1 [ionomycin]
[2]
  permeabilization of negatively charged (phosphatidylserine) liposomes to calcium: permeabilizes liposomes
[3]
  permeabilization of neutral (phosphatidylcholine) liposomes to calcium: permeabilizes thousands of liposomes

## NC(CO)(CO)CO [tromethamine]
Amyloid channels
  blockade of smaller amyloid channels (<400 pS): effectively blocked
  blockade of super-high conductance giant channels (>1 nS): less effective

## Aβ25-35: positively charged short beta-amyloid fragment, channel-forming (GSNKGAIIGLM; Amyloid-beta protein 42; UniProt P05067 696-706, looked up, fragment)
[4]; acidic pH (pH 5.0), 20 μM peptide
  share of channels with high conductance: more than 30%
[4]; planar lipid bilayers
  conductance of channels formed (upper value): up to 1 nS
[2]
  permeabilization of negatively charged (phosphatidylserine) liposomes to calcium: Membrane permeabilization occurs; also recorded: creates multiple liposomes permeable to calcium
[2]; model conditions
  molecules of peptide out of which one channel is formed: approximately 10^12 molecules
[3]
  permeabilization of neutral (phosphatidylcholine) liposomes to calcium: does not permeabilize liposomes; also recorded: not permeabilized

## Aβ22-35: longer beta-amyloid fragment without positive charge, non-channel-forming (EDVGSNKGAIIGLM; Amyloid-beta protein 42; UniProt P05067 693-706, looked up, fragment)
[2]
  permeabilization of negatively charged (phosphatidylserine) liposomes to calcium: does not create a noticeable number of channels; also recorded: does not permeabilize liposomes

## Aβ1-42: full-length amyloid peptide
[2]
  permeabilization of negatively charged (phosphatidylserine) liposomes to calcium: ineffective; also recorded: does not permeabilize liposomal membranes

B1: cystatin C (protein, UniProt P01034 27-146, looked up)
Cystatin-C: SSPGKPPRLVGGPMDASVEEEGVRRALDFAVGEYNKASNDMYHSRALQVVRARKQIVAGVNYFLDVELGRTTCTKTQPNLDNCPFHDQPHLKRKAFCSFQIYAVPWQGTMTLSKSTCQDA
[5]
  drop of cell survival induced by Aβ1-42: prevented the drop of cell survival induced by Aβ1-42

B2: α1-anti-chymotrypsin (protein, UniProt P01011 24-423, looked up)
Alpha-1-antichymotrypsin: HPNSPLDEENLTQENQDRGTHVDLGLASANVDFAFSLYKQLVLKAPDKNVIFSPLSISTALAFLSLGAHNTTLTEILKGLKFNLTETSEAEIHQSFQHLLRTLNQSSDELQLSMGNAMFVKEQLSLLDRFTEDAKRLYGSEAFATDFQDSAAAKKLINDYVKNGTRGKITDLIKDLDSQTMMVLVNYIFFKAKWEMPFDPQDTHQSRFYLSKKKWVMVPMMSLHHLTIPYFRDEELSCTVVELKYTGNASALFILPDQDKMEEVEAMLLPETLKRWRDSLEFREIGELYLPKFSISRDYNLNDILLQLGIEEAFTSKADLSGITGARNLAVSQVVHKAVLDVFEEGTEASAATAVKITLLSALVETRTIVRFNRPFLMIIVPTDTQNIFFMSKVTNPKQA
[6]
  optimal dose for inhibition of amyloid toxicity: 10^−8 M
Aβ1-42 toxicity
  effect on fibril formation: without affecting fibril formation
[7]; MTT
  amylin-induced drop in cell viability / cellular toxicity: prevent amylin-induced cellular toxicity
  protection against amylin: < 100%
[7]; [9]
  amylin-induced drop in cell viability / cellular toxicity: prevented
[7]; above optimal dose
  effect of further increase of ACT concentration on protection against amylin: significantly decreased the protective effect
[8]; 15 cells (IS cells), MTT, different concentrations of Aβ
  optimal dose for inhibition of amyloid toxicity: 10^−7 M
[8]; MTT
  beta-amyloid-induced drop in cell viability: can protect against Aβ-induced drop in cell viability
[8]; [9]
  beta-amyloid-induced drop in cell viability: prevented
[8]; above optimal dose, bell-shaped dose-dependence
  effect of further increase of ACT concentration on protection against beta-amyloid: disappearance of protection; also recorded: bell-shaped dose-dependence of protection
[8]; in some conditions, cell line not specified (15 cells or rat primary cortical cultures), MTT
  protection against beta-amyloid-induced drop in cell viability: 100%
